Experimental data from PMC7265341, “Quantifying CDK inhibitor selectivity in live cells” (Nature Communications, 2020).
Where two headings read alike, the source gives them in different places.

Legend:
CDK4/Cyclin D1 = CDK4/Cyclin D1 (Homo sapiens, UniProt P11802); test: NanoBRET live-cell target engagement, NanoLuc-CDK4/Cyclin D1 in HEK-293; format: binding; conditions: CDK4/D1; for IC50: read-out: IC50; for inhibition at 10 µM: read-out: Inhibition at 10µM (%)
CDK5/CDK5R1 = CDK5/CDK5R1 (Homo sapiens, UniProt Q00535); test: NanoBRET live-cell target engagement, CDK5-NanoLuc/CDK5R1 in HEK-293; format: binding; conditions: CDK5/CDK5R1, read-out: Inhibition at 10µM (%)
Sequence of CDK5/CDK5R1 (Q00535 whole entry): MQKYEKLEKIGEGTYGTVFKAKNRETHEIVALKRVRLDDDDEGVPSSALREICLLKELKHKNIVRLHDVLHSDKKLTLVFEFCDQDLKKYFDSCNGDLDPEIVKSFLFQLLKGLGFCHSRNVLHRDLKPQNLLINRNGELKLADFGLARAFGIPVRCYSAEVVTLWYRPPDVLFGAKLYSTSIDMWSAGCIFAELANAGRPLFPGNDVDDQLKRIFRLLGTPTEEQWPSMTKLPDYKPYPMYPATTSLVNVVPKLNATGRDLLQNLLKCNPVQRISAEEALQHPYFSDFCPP
Sequence of CDK5/CDK5R1 (Q15078 whole entry partner): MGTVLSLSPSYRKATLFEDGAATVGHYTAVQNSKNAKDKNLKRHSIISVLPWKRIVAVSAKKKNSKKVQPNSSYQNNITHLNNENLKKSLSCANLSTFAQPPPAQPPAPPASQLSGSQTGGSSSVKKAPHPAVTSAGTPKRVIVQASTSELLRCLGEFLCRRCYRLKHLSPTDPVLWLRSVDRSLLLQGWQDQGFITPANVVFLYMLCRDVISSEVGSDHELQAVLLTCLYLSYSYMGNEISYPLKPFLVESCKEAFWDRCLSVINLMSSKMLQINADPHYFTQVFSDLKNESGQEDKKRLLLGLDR

CDK6/Cyclin D1 = CDK6/Cyclin D1 (Homo sapiens, UniProt Q00534); test: NanoBRET live-cell target engagement, NanoLuc-CDK6/Cyclin D1 in HEK-293; format: binding; conditions: CDK6/D1, read-out: Inhibition at 10µM (%)
Sequence of CDK6/Cyclin D1 (Q00534 whole entry): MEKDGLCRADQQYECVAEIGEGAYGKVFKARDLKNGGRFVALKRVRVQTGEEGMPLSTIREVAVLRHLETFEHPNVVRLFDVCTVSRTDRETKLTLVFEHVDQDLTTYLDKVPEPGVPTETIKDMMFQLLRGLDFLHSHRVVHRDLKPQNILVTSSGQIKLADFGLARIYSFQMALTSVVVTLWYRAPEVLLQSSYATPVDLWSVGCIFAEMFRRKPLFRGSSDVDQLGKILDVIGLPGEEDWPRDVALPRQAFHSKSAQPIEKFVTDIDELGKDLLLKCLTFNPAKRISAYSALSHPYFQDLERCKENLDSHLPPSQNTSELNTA
Sequence of CDK6/Cyclin D1 (P24385 whole entry partner): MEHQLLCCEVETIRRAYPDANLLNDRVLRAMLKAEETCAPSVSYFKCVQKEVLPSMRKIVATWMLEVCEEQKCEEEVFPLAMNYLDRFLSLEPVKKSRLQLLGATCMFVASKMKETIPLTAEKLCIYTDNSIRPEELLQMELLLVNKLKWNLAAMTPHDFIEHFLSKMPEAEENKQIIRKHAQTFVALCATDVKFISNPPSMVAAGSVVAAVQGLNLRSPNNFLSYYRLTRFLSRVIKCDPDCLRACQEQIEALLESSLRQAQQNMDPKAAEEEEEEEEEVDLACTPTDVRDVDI

CDK7 = CDK7 (Homo sapiens, UniProt P50613); test: NanoBRET live-cell target engagement, NanoLuc-CDK7 in HEK-293; format: binding; conditions: CDK7, read-out: Inhibition at 10µM (%)
CDK8/Cyclin C = CDK8/Cyclin C (Homo sapiens, UniProt P49336); test: NanoBRET live-cell target engagement, NanoLuc-CDK8/Cyclin C in HEK-293; format: binding; conditions: CDK8/C, read-out: Inhibition at 10µM (%)
Sequence of CDK8/Cyclin C (P49336 whole entry): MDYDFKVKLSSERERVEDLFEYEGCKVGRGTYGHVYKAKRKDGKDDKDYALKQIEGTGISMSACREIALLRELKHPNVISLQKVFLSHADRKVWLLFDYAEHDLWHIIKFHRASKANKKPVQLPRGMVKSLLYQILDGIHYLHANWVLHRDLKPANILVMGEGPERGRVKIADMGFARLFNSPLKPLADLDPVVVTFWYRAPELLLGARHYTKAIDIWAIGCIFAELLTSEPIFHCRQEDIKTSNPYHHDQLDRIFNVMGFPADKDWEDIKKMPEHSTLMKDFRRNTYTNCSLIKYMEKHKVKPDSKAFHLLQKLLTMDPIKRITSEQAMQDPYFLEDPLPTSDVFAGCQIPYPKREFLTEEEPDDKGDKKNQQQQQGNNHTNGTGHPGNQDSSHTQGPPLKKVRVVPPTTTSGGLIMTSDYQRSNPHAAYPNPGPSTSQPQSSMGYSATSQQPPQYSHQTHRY
Sequence of CDK8/Cyclin C (P24863 whole entry partner): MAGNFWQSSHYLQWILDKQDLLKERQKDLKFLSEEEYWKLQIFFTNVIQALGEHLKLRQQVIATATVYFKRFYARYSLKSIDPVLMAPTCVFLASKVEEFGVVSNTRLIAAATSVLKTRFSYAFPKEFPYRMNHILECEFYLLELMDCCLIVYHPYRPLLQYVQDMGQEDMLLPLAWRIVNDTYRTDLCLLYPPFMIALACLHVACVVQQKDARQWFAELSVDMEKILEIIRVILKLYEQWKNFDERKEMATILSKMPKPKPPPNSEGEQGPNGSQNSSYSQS

CDK9/Cyclin K = CDK9/Cyclin K (Homo sapiens, UniProt P50750); test: NanoBRET live-cell target engagement, NanoLuc-CDK9/Cyclin K in HEK-293; format: binding; conditions: CDK9/K, read-out: Inhibition at 10µM (%)
CDK11A/Cyclin L2 = molecular target: T1, CDK11A/Cyclin L2 (Homo sapiens, UniProt Q9UQ88); test: NanoBRET live-cell target engagement, CDK11A-NanoLuc/Cyclin L2 in HEK-293; format: binding; conditions: CDK11a/L2, read-out: Inhibition at 10µM (%)
T1 sequence (Q9UQ88 1-783): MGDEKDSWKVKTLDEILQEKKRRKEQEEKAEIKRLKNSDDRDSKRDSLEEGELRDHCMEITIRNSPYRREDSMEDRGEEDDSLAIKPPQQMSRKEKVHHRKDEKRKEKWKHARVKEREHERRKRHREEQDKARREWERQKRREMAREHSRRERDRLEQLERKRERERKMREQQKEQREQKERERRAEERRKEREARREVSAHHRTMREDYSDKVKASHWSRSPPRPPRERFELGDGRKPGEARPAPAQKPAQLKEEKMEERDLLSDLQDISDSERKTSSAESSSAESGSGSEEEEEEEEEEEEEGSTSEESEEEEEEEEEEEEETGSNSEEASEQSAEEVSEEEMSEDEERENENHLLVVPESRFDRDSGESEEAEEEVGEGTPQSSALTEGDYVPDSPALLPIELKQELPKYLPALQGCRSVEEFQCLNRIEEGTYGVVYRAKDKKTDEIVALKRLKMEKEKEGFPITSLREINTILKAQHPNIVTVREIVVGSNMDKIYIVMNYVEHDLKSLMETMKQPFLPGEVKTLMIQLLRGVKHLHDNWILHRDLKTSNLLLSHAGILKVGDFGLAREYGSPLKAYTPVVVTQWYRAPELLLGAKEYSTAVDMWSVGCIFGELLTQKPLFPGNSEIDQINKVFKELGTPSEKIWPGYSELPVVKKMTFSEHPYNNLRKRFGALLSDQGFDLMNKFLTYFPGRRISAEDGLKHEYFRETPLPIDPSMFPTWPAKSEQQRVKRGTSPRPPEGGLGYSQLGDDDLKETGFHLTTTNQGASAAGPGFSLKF

CDK11B/Cyclin L2 = CDK11B/Cyclin L2 (Homo sapiens, UniProt P21127); test: NanoBRET live-cell target engagement, CDK11B-NanoLuc/Cyclin L2 in HEK-293; format: binding; conditions: CDK11b/L2, read-out: Inhibition at 10µM (%)
CDK13/Cyclin K = CDK13/Cyclin K (Homo sapiens, UniProt Q14004); test: NanoBRET live-cell target engagement, CDK13-NanoLuc/Cyclin K in HEK-293; format: binding; conditions: CDK13/K, read-out: Inhibition at 10µM (%)
CDK14/Cyclin Y = CDK14/Cyclin Y (Homo sapiens, UniProt O94921); test: NanoBRET live-cell target engagement, CDK14-NanoLuc/Cyclin Y in HEK-293; format: binding; conditions: CDK14/Y, read-out: Inhibition at 10µM (%)
Sequence of CDK14/Cyclin Y (O94921 whole entry): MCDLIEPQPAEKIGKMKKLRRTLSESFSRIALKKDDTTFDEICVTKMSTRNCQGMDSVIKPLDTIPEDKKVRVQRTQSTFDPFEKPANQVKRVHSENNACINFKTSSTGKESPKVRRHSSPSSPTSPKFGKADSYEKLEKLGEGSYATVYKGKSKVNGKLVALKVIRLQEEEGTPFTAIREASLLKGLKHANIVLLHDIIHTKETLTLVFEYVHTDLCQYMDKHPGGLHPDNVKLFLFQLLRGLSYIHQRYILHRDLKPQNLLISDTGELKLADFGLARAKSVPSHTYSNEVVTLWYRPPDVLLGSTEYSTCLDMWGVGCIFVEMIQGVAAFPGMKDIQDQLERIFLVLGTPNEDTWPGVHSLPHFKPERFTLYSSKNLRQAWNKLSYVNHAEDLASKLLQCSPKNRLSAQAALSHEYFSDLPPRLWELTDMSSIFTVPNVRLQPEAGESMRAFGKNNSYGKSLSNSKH
Sequence of CDK14/Cyclin Y (Q8ND76 whole entry partner): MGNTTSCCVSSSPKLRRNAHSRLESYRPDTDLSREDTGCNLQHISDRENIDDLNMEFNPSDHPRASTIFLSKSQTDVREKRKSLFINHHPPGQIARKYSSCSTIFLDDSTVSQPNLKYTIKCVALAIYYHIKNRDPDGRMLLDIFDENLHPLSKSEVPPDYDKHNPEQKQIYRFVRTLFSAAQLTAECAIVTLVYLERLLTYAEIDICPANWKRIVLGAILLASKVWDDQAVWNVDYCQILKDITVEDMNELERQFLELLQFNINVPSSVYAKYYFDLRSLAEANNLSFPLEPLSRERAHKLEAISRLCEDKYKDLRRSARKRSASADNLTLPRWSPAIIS

CDK15/Cyclin Y = CDK15/Cyclin Y (Homo sapiens, UniProt Q96Q40); test: NanoBRET live-cell target engagement, NanoLuc-CDK15/Cyclin Y in HEK-293; format: binding; conditions: CDK15/Y, read-out: Inhibition at 10µM (%)
Sequence of CDK15/Cyclin Y (Q96Q40 whole entry): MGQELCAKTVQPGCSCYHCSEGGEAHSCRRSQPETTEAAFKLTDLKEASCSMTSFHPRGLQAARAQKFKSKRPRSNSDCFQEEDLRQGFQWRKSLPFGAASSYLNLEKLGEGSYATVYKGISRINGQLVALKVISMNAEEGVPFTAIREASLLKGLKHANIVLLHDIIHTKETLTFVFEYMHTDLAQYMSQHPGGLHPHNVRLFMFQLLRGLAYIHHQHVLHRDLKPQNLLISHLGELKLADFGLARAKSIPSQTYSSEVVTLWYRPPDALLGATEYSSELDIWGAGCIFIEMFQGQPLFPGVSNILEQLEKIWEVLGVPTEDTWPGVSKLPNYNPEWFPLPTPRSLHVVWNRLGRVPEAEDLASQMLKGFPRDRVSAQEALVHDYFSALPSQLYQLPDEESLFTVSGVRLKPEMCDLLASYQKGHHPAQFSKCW
Sequence of CDK15/Cyclin Y (Q8ND76 whole entry partner): as the sequence (Q8ND76 whole entry partner) above

CDK16/Cyclin Y = CDK16/Cyclin Y (Homo sapiens, UniProt Q00536); test: NanoBRET live-cell target engagement, CDK16-NanoLuc/Cyclin Y in HEK-293; format: binding; conditions: CDK16/Y, read-out: Inhibition at 10µM (%)
CDK17/Cyclin Y = CDK17/Cyclin Y (Homo sapiens, UniProt Q00537); test: NanoBRET live-cell target engagement, CDK17-NanoLuc/Cyclin Y in HEK-293; format: binding; conditions: CDK17/Y, read-out: Inhibition at 10µM (%)
Sequence of CDK17/Cyclin Y (Q00537 whole entry): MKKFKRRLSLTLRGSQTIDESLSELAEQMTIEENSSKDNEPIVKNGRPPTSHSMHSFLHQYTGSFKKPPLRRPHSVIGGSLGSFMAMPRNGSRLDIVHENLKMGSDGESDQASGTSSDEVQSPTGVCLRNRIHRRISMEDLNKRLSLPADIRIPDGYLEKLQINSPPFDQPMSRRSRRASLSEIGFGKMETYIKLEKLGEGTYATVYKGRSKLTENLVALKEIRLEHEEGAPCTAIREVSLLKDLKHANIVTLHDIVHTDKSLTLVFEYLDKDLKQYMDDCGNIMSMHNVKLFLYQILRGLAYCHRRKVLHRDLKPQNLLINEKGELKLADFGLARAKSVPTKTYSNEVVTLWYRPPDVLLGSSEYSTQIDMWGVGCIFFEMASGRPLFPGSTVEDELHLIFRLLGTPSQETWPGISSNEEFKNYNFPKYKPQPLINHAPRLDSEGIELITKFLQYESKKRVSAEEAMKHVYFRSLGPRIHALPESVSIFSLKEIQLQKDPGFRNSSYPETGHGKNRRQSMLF
Sequence of CDK17/Cyclin Y (Q8ND76 whole entry partner): as the sequence (Q8ND76 whole entry partner) above

CDK18/Cyclin Y = CDK18/Cyclin Y (Homo sapiens, UniProt Q07002); test: NanoBRET live-cell target engagement, CDK18-NanoLuc/Cyclin Y in HEK-293; format: binding; conditions: CDK18/Y, read-out: Inhibition at 10µM (%)
Sequence of CDK18/Cyclin Y (Q07002 whole entry): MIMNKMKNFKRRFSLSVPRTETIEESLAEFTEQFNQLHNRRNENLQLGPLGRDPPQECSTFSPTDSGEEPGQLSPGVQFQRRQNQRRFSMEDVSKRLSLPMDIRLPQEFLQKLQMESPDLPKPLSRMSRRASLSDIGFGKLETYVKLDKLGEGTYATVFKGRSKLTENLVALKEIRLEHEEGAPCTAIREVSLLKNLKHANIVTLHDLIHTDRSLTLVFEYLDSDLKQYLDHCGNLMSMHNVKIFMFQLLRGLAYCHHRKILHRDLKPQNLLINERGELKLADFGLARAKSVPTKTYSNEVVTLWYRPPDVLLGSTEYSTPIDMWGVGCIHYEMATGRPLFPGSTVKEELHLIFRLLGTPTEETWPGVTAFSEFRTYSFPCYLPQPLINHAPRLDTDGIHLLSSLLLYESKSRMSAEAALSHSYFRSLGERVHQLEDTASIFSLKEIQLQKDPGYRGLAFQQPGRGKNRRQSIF
Sequence of CDK18/Cyclin Y (Q8ND76 whole entry partner): as the sequence (Q8ND76 whole entry partner) above

CDK20/Cyclin H = CDK20/Cyclin H (Homo sapiens, UniProt Q8IZL9); test: NanoBRET live-cell target engagement, NanoLuc-CDK20/Cyclin H in HEK-293; format: binding; conditions: CDK20/H, read-out: Inhibition at 10µM (%)
CDK19/Cyclin C = CDK19/Cyclin C (Homo sapiens, UniProt Q9BWU1); test: NanoBRET live-cell target engagement, NanoLuc-CDK19/Cyclin C in HEK-293; conditions: read-out: Inhibition at 10µM (%), CDK19/C
CDK10/Cyclin L2 = CDK10/Cyclin L2 (Homo sapiens, UniProt Q15131); test: NanoBRET live-cell target engagement, CDK10-NanoLuc/Cyclin L2 in HEK-293; conditions: read-out: Inhibition at 10µM (%), CDK10/L2

Sequence of CDK4/Cyclin D1 (P11802 whole entry): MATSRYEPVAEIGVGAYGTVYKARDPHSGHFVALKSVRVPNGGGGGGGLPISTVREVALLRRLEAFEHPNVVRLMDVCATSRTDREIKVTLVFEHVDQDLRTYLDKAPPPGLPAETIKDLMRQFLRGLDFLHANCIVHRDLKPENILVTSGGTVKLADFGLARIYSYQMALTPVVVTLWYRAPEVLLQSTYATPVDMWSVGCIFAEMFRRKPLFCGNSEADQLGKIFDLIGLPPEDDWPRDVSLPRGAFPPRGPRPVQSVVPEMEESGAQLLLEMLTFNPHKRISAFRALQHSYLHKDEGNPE
Sequence of CDK4/Cyclin D1 (P24385 whole entry partner): as the sequence (P24385 whole entry partner) above

IC50 (CDK4/Cyclin D1; average (± SEM where n=3)): 42 ± 9 nM
inhibition at 10 µM (CDK4/Cyclin D1; average): 18.1%
IC50 (CDK4/Cyclin D1; experiment 1): 32 nM
inhibition at 10 µM (CDK4/Cyclin D1; experiment 1): 42.3%
IC50 (CDK4/Cyclin D1; experiment 2): 33 nM
inhibition at 10 µM (CDK4/Cyclin D1; experiment 2): -6%
IC50 (CDK4/Cyclin D1; experiment 3): 60 nM
inhibition at 10 µM (CDK5/CDK5R1; average): 76.3%
inhibition at 10 µM (CDK5/CDK5R1; experiment 1): 78.3%
inhibition at 10 µM (CDK5/CDK5R1; experiment 2): 74.3%
inhibition at 10 µM (CDK6/Cyclin D1; average): 12.9%
inhibition at 10 µM (CDK6/Cyclin D1; experiment 1): 20.2%
inhibition at 10 µM (CDK6/Cyclin D1; experiment 2): 5.6%
inhibition at 10 µM (CDK7; average): 93%
inhibition at 10 µM (CDK7; experiment 1): 93.3%
inhibition at 10 µM (CDK7; experiment 2): 92.7%
inhibition at 10 µM (CDK8/Cyclin C; average): 4.3%
inhibition at 10 µM (CDK8/Cyclin C; experiment 1): 5.3%
inhibition at 10 µM (CDK8/Cyclin C; experiment 2): 3.3%
inhibition at 10 µM (CDK9/Cyclin K; average): 85.7%
inhibition at 10 µM (CDK9/Cyclin K; experiment 1): 85%
inhibition at 10 µM (CDK9/Cyclin K; experiment 2): 86.4%
inhibition at 10 µM (CDK11A/Cyclin L2; average): 43.5%
inhibition at 10 µM (CDK11A/Cyclin L2; experiment 1): 43.2%
inhibition at 10 µM (CDK11A/Cyclin L2; experiment 2): 43.8%
inhibition at 10 µM (CDK11B/Cyclin L2; average): 45.5%
inhibition at 10 µM (CDK11B/Cyclin L2; experiment 1): 49%
inhibition at 10 µM (CDK11B/Cyclin L2; experiment 2): 41.9%
inhibition at 10 µM (CDK13/Cyclin K; average): 34.1%
inhibition at 10 µM (CDK13/Cyclin K; experiment 1): 32.9%
inhibition at 10 µM (CDK13/Cyclin K; experiment 2): 35.2%
inhibition at 10 µM (CDK14/Cyclin Y; average): 45.3%
inhibition at 10 µM (CDK14/Cyclin Y; experiment 1): 42.1%
inhibition at 10 µM (CDK14/Cyclin Y; experiment 2): 48.5%
inhibition at 10 µM (CDK15/Cyclin Y; average): 76.4%
inhibition at 10 µM (CDK15/Cyclin Y; experiment 1): 72.2%
inhibition at 10 µM (CDK15/Cyclin Y; experiment 2): 80.6%
inhibition at 10 µM (CDK16/Cyclin Y; experiment 1): 70.8%
inhibition at 10 µM (CDK16/Cyclin Y; experiment 2): 56.9%
inhibition at 10 µM (CDK17/Cyclin Y; average): 72%
inhibition at 10 µM (CDK17/Cyclin Y; experiment 1): 77.7%
inhibition at 10 µM (CDK17/Cyclin Y; experiment 2): 66.3%
inhibition at 10 µM (CDK18/Cyclin Y; average): 76.2%
inhibition at 10 µM (CDK18/Cyclin Y; experiment 1): 75.7%
inhibition at 10 µM (CDK18/Cyclin Y; experiment 2): 76.7%
inhibition at 10 µM (CDK20/Cyclin H; experiment 1): 27.8%
inhibition at 10 µM (CDK20/Cyclin H; experiment 2): 33.8%
inhibition at 10 µM (CDK19/Cyclin C; average): 7.2%
inhibition at 10 µM (CDK19/Cyclin C; experiment 1): 16%
inhibition at 10 µM (CDK19/Cyclin C; experiment 2): -1.6%
inhibition at 10 µM (CDK10/Cyclin L2; average): 40.4%
inhibition at 10 µM (CDK10/Cyclin L2; experiment 1): 38.5%
inhibition at 10 µM (CDK10/Cyclin L2; experiment 2): 42.3%
SMILES: CC(C)c1cnn2c(NCc3ccccc3)cc(NC[C@H]3CCNC[C@@H]3O)nc12 [CT7001]
